Data taken from patent US20150105252A1, “SUBSTITUTED PYRAZOLES AS HERBICIDES” (E I DU PONT DE NEMOURS AND COMPANY, priority 2013, published 2015).

Tests used:
[1] = test system: wheat; assay: Test A preemergence; format: in vivo, Triticum aestivum; conditions: preemergence; for Wheat plant response rating (0 to 100 scale): 125 g ai/ha, visual injury approx. 10 days after treatment; for Wheat plant response rating: 500 g ai/ha, visual injury after approx. 10 days, 0 to 100 scale (0 no effect, 100 complete control)
Procedure, shortened: (§1)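 Greenhouse test in loam soil/sand blend; compounds formulated in non-phytotoxic solvent with surfactant, applied as preemergence directed soil spray or postemergence to plants 2–10 cm tall at one- to two-leaf stage. Injury rated visually versus untreated controls after approximately 10 days on a 0 (no effect) to 100 (complete control) scale.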

[2] = test system: rice; assay: Test B flood; format: in vivo, Oryza sativa; conditions: 250 g ai/ha, visual rating on 0 to 100 scale (0 no effect, 100 complete control), 13 to 15 days
Procedure, shortened: (§2)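 Visual ratings on a 0–100 scale, where 0 means no effect and 100 means complete control, were assigned by comparison with controls 13 to 15 days after treatment. Compounds went into paddy water over 2-leaf plants flooded to 3 cm.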

[3] = test system: pigweed; assay: Test A postemergence; format: in vivo, Amaranthus retroflexus; conditions: Postemergence
Procedure, shortened: as §1

[4] = test system: barnyardgrass; assay: Test A preemergence; format: in vivo, Echinochloa crus-galli; conditions: preemergence; for Barnyardgrass plant response rating (0 to 100 scale, 0 is no effect, 100 is complete control): 125 g ai/ha, visual injury approx. 10 days after treatment; for Barnyardgrass plant response rating: 500 g ai/ha, visual injury after approx. 10 days, 0 to 100 scale (0 no effect, 100 complete control)
Procedure, shortened: as §1

[5] = test system: crabgrass, large; assay: Test A preemergence; format: in vivo, Digitaria sanguinalis; conditions: preemergence; for Crabgrass, Large plant response rating (0 to 100 scale): 125 g ai/ha, visual injury approx. 10 days after treatment; for Crabgrass, Large plant response rating: 500 g ai/ha, visual injury after approx. 10 days, 0 to 100 scale (0 no effect, 100 complete control)
Procedure, shortened: as §1

[6] = test system: corn; assay: Test A postemergence; format: in vivo, Zea mays
Procedure, shortened: as §1

[7] = test system: sedge, umbrella; assay: Test B flood; format: in vivo, Cyperus difformis; conditions: 250 g ai/ha, visual rating on 0 to 100 scale (0 no effect, 100 complete control), 13 to 15 days
Procedure, shortened: as §2

[8] = test system: velvetleaf; assay: Test A postemergence; format: in vivo, Abutilon theophrasti; conditions: Postemergence
Procedure, shortened: as §1

[9] = test system: barnyardgrass; assay: Test B flood; format: in vivo, Echinochloa crus-galli; conditions: 250 g ai/ha, visual rating on 0 to 100 scale (0 no effect, 100 complete control), 13 to 15 days
Procedure, shortened: as §2

[10] = test system: morningglory; assay: Test A postemergence; format: in vivo, Ipomoea spp.; conditions: Postemergence
Procedure, shortened: as §1

[11] = test system: ducksalad; assay: Test B flood; format: in vivo, Heteranthera limosa; conditions: 250 g ai/ha, visual rating on 0 to 100 scale (0 no effect, 100 complete control), 13 to 15 days
Procedure, shortened: as §2

[12] = test system: foxtail, giant; assay: Test A postemergence; format: in vivo, Setaria faberii
Procedure, shortened: as §1

[13] = test system: barnyardgrass; assay: Test A postemergence; format: in vivo, Echinochloa crus-galli
Procedure, shortened: as §1

[14] = test system: morningglory; assay: Test A preemergence; format: in vivo, Ipomoea spp.; conditions: preemergence; for Morningglory plant response rating (0 to 100 scale): 125 g ai/ha, visual injury approx. 10 days after treatment; for Morningglory plant response rating: 500 g ai/ha, visual injury after approx. 10 days, 0 to 100 scale (0 no effect, 100 complete control)
Procedure, shortened: as §1

[15] = test system: wheat; assay: Test A postemergence; format: in vivo, Triticum aestivum; conditions: Postemergence
Procedure, shortened: as §1

[16] = test system: corn; assay: Test A preemergence; format: in vivo, Zea mays; conditions: preemergence; for Corn plant response rating (0 to 100 scale): 125 g ai/ha, visual injury approx. 10 days after treatment; for Corn plant response rating: 500 g ai/ha, visual injury after approx. 10 days, 0 to 100 scale (0 no effect, 100 complete control)
Procedure, shortened: as §1

[17] = test system: pigweed; assay: Test A preemergence; format: in vivo, Amaranthus retroflexus; conditions: preemergence; for Pigweed plant response rating (0 to 100 scale): 125 g ai/ha, visual injury approx. 10 days after treatment; for Pigweed plant response rating: 500 g ai/ha, visual injury after approx. 10 days, 0 to 100 scale (0 no effect, 100 complete control)
Procedure, shortened: as §1

[18] = test system: velvetleaf; assay: Test A preemergence; format: in vivo, Abutilon theophrasti; conditions: preemergence; for Velvetleaf plant response rating (0 to 100 scale): 125 g ai/ha, visual injury approx. 10 days after treatment; for Velvetleaf plant response rating: 500 g ai/ha, visual injury after approx. 10 days, 0 to 100 scale (0 no effect, 100 complete control)
Procedure, shortened: as §1

[19] = test system: foxtail, giant; assay: Test A preemergence; format: in vivo, Setaria faberii; conditions: preemergence; for Foxtail, Giant plant response rating (0 to 100 scale): 125 g ai/ha, visual injury approx. 10 days after treatment; for Foxtail, Giant plant response rating: 500 g ai/ha, visual injury after approx. 10 days, 0 to 100 scale (0 no effect, 100 complete control)
Procedure, shortened: as §1

[20] = test system: crabgrass, large; assay: Test A postemergence; format: in vivo, Digitaria sanguinalis
Procedure, shortened: as §1

[21] = 500 g ai/ha, 0 to 100 scale (0 no effect, 100 complete control)
[22] = Postemergence, 500 g ai/ha, 0 to 100 scale (0 no effect, 100 complete control)
[23] = postemergence, 125 g ai/ha, about 10 days, visual rating on 0 to 100 scale (0 no effect, 100 complete control)
[24] = 125 g ai/ha, 0 to 100 scale, 0 no effect, 100 complete control
[25] = Postemergence, 125 g ai/ha, 0 to 100 scale, 0 no effect, 100 complete control

Row | Structure (SMILES) | Wheat plant response rating (0 to 100 scale) [1] | Plant response rating, Rice [2] | Pigweed plant response rating [3, 21] | Barnyardgrass plant response rating (0 to 100 scale, 0 is no effect, 100 is complete control) [4] | Barnyardgrass plant response rating [4] | Crabgrass, Large plant response rating (0 to 100 scale) [5] | Crabgrass, Large plant response rating [5] | Corn plant response rating [6, 22] | Plant response rating, Sedge, Umbrella [7] | Velvetleaf plant response rating [8, 21] | Plant response rating, Barnyardgrass [9] | Morningglory plant response rating [10, 21] | Plant response rating, Ducksalad [11] | Foxtail, Giant plant response rating [12, 22] | Barnyardgrass plant response rating [13, 22] | Morningglory plant response rating (0 to 100 scale) [14] | Wheat plant response rating [15, 21] | Corn plant response rating (0 to 100 scale) [16] | Corn plant response rating [16] | Pigweed plant response rating (0 to 100 scale) [17] | other results
1 | CCCCNC(=O)c1cc(I)n(Cc2cccc(C(F)(F)F)c2)n1 [Compound 182] | 0 | 0 | 90 | 0 | 0 | 0 | 60 | 20 | 0 | 70 | 0 | 30 | 0 | 20 | 30 | 0 | 0 | 0 | 0 | 0 | Wheat plant response rating [1]: 0; Corn plant response rating [6, 23]: 0; Foxtail, Giant plant response rating [12, 23]: 0; Barnyardgrass plant response rating [13, 23]: 20; Morningglory plant response rating [14]: 0; Pigweed plant response rating [17]: 30; Velvetleaf plant response rating (0 to 100 scale) [18]: 0; Velvetleaf plant response rating [18]: 0; Foxtail, Giant plant response rating (0 to 100 scale) [19]: 0; Foxtail, Giant plant response rating [19]: 50; Crabgrass, Large plant response rating [20, 22]: 30; Crabgrass, Large plant response rating [20, 23]: 10
2 | CCc1cc(C(=O)NCC(F)(F)F)nn1Cc1nc(C(F)(F)F)no1 [Compound 184] | 0 | 0 | 90 | 0 | 100 | 50 | 100 | 60 | 0 | 60 | 0 | 90 | 0 | 40 | 60 | 20 | 20 | 0 | 30 | 60 | Wheat plant response rating [1]: 20; Pigweed plant response rating [3, 24]: 60; Corn plant response rating [6, 23]: 0; Velvetleaf plant response rating [8, 24]: 50; Morningglory plant response rating [10, 24]: 30; Foxtail, Giant plant response rating [12, 23]: 0; Barnyardgrass plant response rating [13, 23]: 0; Morningglory plant response rating [14]: 100; Wheat plant response rating [15, 24]: 0; Pigweed plant response rating [17]: 100; Velvetleaf plant response rating (0 to 100 scale) [18]: 0; Velvetleaf plant response rating [18]: 50; Foxtail, Giant plant response rating (0 to 100 scale) [19]: 60; Foxtail, Giant plant response rating [19]: 90; Crabgrass, Large plant response rating [20, 22]: 70; Crabgrass, Large plant response rating [20, 23]: 0
3 | CCCNC(=O)c1cc(CC)n(Oc2cccc(C(F)(F)F)c2)n1 [Compound 216] | 0 | 0 | 30 | 0 | 80 | 60 | 90 | 50 | 30 | 40 | 0 | 70 | 20 | 40 | 70 | 0 | 0 | 0 | 10 | 0 | Pigweed plant response rating [3, 24]: 20; Corn plant response rating [6, 25]: 0; Velvetleaf plant response rating [8, 24]: 0; Morningglory plant response rating [10, 24]: 20; Foxtail, Giant plant response rating [12, 25]: 0; Barnyardgrass plant response rating [13, 25]: 0; Wheat plant response rating [15, 24]: 0; Velvetleaf plant response rating (0 to 100 scale) [18]: 0; Foxtail, Giant plant response rating (0 to 100 scale) [19]: 10; Foxtail, Giant plant response rating [19]: 40; Crabgrass, Large plant response rating [20, 25]: 20; Crabgrass, Large plant response rating [20, 22]: 70
